# Experiments:
# [1] = tested on: Paenibacillus larvae subsp. pulvifaciens; experiment: Disk diffusion test (Kirby-Bauer), zone of inhibition; type: cell-based; settings: 6 mm paper disc containing 250 μg of allicin
# Method: Allicin (Allisure™ Liquid) was tested against bacterial and fungal pathogens using a standard disk diffusion method (per Norrell & Messley). The aliquots of bacterial or fungal spores (100 μl of approximately 10^8-10^9 spores/ml) were plated on Mueller-Hinton agar medium, 4.0 mm depth. The 6 mm paper discs containing 250 μg of allicin or 5 μg of tylosin (positive control) were placed in the center of each plate. Plates were incubated at 33° C. and 6% CO2 and a zone of inhibition was measured 24 h, 48 h or 76 h post inoculation depending on the microbial species. All experiments were replicated at least three times.
# P. alvei = experiment: Investigation into bacteriostatic or bactericidal effects (Study 2); type: cell-based, Paenibacillus alvei; settings: conclusion from subculture into fresh media
# Method: Where there was no growth in a replicate, at the end of one week the culture was plated out for single colonies on the appropriate agar. This was to determine whether the test item had bactericidal activity, where all the bacterial cells are killed, or bacteriostatic action, where the cells are unable to replicate in the presence of the substance, but will grow when it is removed. A further test, where 0.5 ml of the broth was transferred into 4.5 ml fresh broth (giving a 1:10 dilution) was also undertaken. There would still be some Allicin in the broth, but it should be present at a low enough concentration for growth not to be affected. Where growth occurred in the absence of Allicin, the broth was examined microscopically and plated out for single colonies to confirm the identity of the bacterium.
# P. l. larvae = experiment: Minimum bactericidal concentration by plating out MIC cultures; type: cell-based, Paenibacillus larvae subsp. larvae; settings: range of 1000 ppm to 25 ppm
# Method: (§1) Positive controls contained the antibiotic Tylosin (Tylan® 50, Elanco Animal Health Inc., IN) and negative controls contained no antibiotics. Bacterial (P. l. larvae, P. l. pulviphaciens) or fungal (A. apis, A. aggregata) spores (100 μl of approximately 10^8-10^9 spores/ml) were added to a 2.5 ml of bacterial or fungal liquid medium containing serial dilutions of allicin. Cultures were incubated in a shaker at 35° C. and 215 rpm. The optical densities of cultures (OD 600) were recorded 24 h and 48 h post inoculation, depending on the growth rate of the microbial species. […] Minimum bactericidal concentration values (NBC) were determined for allicin by plating out 100 μl of bacterial cultures derived from the MIC assay. Plates were incubated 24 h and 48 h at 33° C. and 6% CO2 to observe microbial growth.
# [2] = tested on: GISA strain isolated from the UK mortality; experiment: Standard agar diffusion test against a GISA strain; type: cell-based, Staphylococcus aureus
# Excerpt: Allicin in a liquid form has been tested against the GISA strain isolated from the UK mortality. In a standard agar diffusion test the strain produced a zone of 37 mm at 500 ppm (FIG. 2) and 30 mm at 300 ppm.
# P. l. pulvifaciens = experiment: Minimum bactericidal concentration by plating out MIC cultures; type: cell-based, Paenibacillus larvae subsp. pulvifaciens; settings: range of 1000 ppm to 25 ppm
# Method: as §1
# [3] = tested on: E. coli and Salmonella growth; experiment: Preservation of hamburger meat samples against bacterial growth; type: cell-based; settings: for time bacterial overgrowth prevented: 10 kg hamburger meat
# Excerpt: A range of concentrations of liquid allicin (0 ppm to 500 ppm) was applied to 10 kg samples of hamburger meat to determine how long bacterial growth could be prevented. These tests were compared to the normal use of existing preservatives (including nitrates and phosphates).
# To test for bacterial growth, small samples of meat were cut from the test piece of meat and, using standard methods of analysis, were checked for E. coli and Salmonella growth.
# [4] = tested on: Escherichia coli (NCTC 8156); experiment: Modified Kelsey-Sykes test; type: cell-based; design: key: CG = Confluent growth
# Excerpt: Allicin can be used to displace or supplement existing harmful forms of disinfectant/biocide such as chlorine, sodium hypochlorite, ozone and per-acetic acid all of which can have an adverse effect on the environment. UV radiation is also used for disinfection but power and general running costs are high. Laboratory studies have been conducted on our behalf using allicin on aqueous suspensions of bacterial species commonly used as indicators of the effectiveness of water and wastewater disinfection. To this effect, identified isolates from the faecal coliform and streptococcus groups, namely, Escherichia coli (NCTC 8156) and Enterococcus hirae (University of Brighton isolate) were used in all experiments. An aqueous solution of allicin with a nominal concentration of allicin of 1.8 g per litre ie a 0.18% solution was used.
# Stock suspensions of Escherichia coli (NCTC 8156) and Enterococcus hirae (University of Brighton isolate) were cultivated in Nutrient Broth No. 2 from freeze dried isolates. Prior to each experiment, serial dilutions of the suspensions were enumerated by the spread plate method on Nutrient Agar and subsequent incubation at 37 deg C.
# Initial experimental procedures were based on the methods set out in an established UK protocol (BS 6905: 1987). The Kelsy-Sykes methodology was developed as a guide to the concentrations of disinfectants which may be recommended for use under “dirty” (wastewater/sewage) conditions. It is therefore a suitable means of establishing the effectiveness of a disinfectant against a wastewater containing particulate and dissolved contaminants in addition to micro-organisms.
# Therefore, with regard to wastewater/sewage considerations, the protocol was adapted. Under the revised methodology, a sample was taken from the bacterial suspension/biocide mix after the prescribed contact time and plated out onto solid media so that a colony count could be made (see Tables 1 and 2).
# Bordetella = experiment: Zones of Inhibition against common chicken bacteria; type: cell-based
# Staph. Aureus = experiment: as above; type: cell-based; settings: Staphylococcus aureus
# Ent. Hirae = experiment: Agar inhibition test; type: cell-based, Enterococcus hirae; settings: equivalent to 0.0225% w/v
# [5] = allicin conc. 0.9 % (w/v), 10 mins
# [6] = allicin conc. 0.9 % (w/v), 20 mins
# [7] = allicin conc. 0.9 % (w/v), 30 mins
# [8] = allicin conc. 1.08 % (w/v), 10 mins
# [9] = allicin conc. 1.08 % (w/v), 20 mins
# [10] = allicin conc. 1.26 % (w/v), 10 mins
# [11] = allicin conc. 1.26 % (w/v), 20 mins
# [12] = allicin conc. 1.62 % (w/v), 10 mins
# [13] = allicin conc. 1.62 % (w/v), 20 mins
smiles,measurement,setting,value
"C=CCS[S+]([O-])CC=C (stereo not drawn) [allicin, Allicin]",zone of inhibition,[1],24-26 mm
same,bacteriostatic or bactericidal effect,P. alvei,did not kill all bacteria
same,bacteriostatic or bactericidal activity,P. l. larvae,only bacteriostatic (no bactericidal) activity
same,zone of inhibition at 300 ppm,"[2]; Staphylococcus aureus, 300 ppm, allicin in a liquid form",30 mm
same,zone of inhibition at 500 ppm,"[2]; Staphylococcus aureus, 500 ppm, allicin in a liquid form",37 mm
same,susceptibility of the GISA strain,[2]; recommended doses for topical use,fully susceptible
same,bacteriostatic or bactericidal activity,P. l. pulvifaciens,only bacteriostatic (no bactericidal) activity
same,time bacterial overgrowth prevented,[3]; 250 ppm,up to 7 days
same,time bacterial overgrowth prevented,[3]; 375 ppm,up to 10 days
same,time bacterial overgrowth prevented,[3]; 500 ppm,up to 14 days
same,allicin concentration demonstrating prevention of growth of E. coli and Salmonella,"[3]; meat, equivalent to 0.0250% w/v",250 ppm
same,Numbers of colony forming units killed,[4]; [5],CG
same,Percentage reduction in colony forming units,[4]; [5],CG
same,Numbers of colony forming units killed,[4]; [6],CG
same,Percentage reduction in colony forming units,[4]; [6],CG
same,Numbers of colony forming units killed,[4]; [7],CG
same,Percentage reduction in colony forming units,[4]; [7],CG
same,Numbers of colony forming units killed,[4]; [8],CG
same,Percentage reduction in colony forming units,[4]; [8],CG
same,Numbers of colony forming units killed,[4]; [9],CG
same,Percentage reduction in colony forming units,[4]; [9],CG
same,Percentage reduction in colony forming units,"[4]; allicin conc. 1.08 % (w/v), 30 mins",94%
same,Numbers of colony forming units killed,[4]; [10],CG
same,Percentage reduction in colony forming units,[4]; [10],CG
same,Numbers of colony forming units killed,[4]; [11],CG
same,Percentage reduction in colony forming units,[4]; [11],CG
same,Percentage reduction in colony forming units,"[4]; allicin conc. 1.26 % (w/v), 30 mins",97%
same,Percentage reduction in colony forming units,"[4]; allicin conc. 1.4 % (w/v), 10 mins",CG
same,Percentage reduction in colony forming units,"[4]; allicin conc. 1.4 % (w/v), 20 mins",CG
same,Percentage reduction in colony forming units,"[4]; allicin conc. 1.4 % (w/v), 30 mins",89%
same,Numbers of colony forming units killed,"[4]; allicin conc. 1.44 % (w/v), 10 mins",CG
same,Numbers of colony forming units killed,"[4]; allicin conc. 1.44 % (w/v), 20 mins",CG
same,Numbers of colony forming units killed,[4]; [12],CG
same,Percentage reduction in colony forming units,[4]; [12],CG
same,Numbers of colony forming units killed,[4]; [13],CG
same,Percentage reduction in colony forming units,[4]; [13],CG
same,Percentage reduction in colony forming units,"[4]; allicin conc. 1.62 % (w/v), 30 mins",83%
same,zone of inhibition at 166 ppm,Bordetella; 166 ppm (1:6 dilution),18 mm
same,zone of inhibition at 1000 ppm,Bordetella; 1000 ppm,36 mm
same,zone of inhibition at 166 ppm,Staph. Aureus; 166 ppm (1:6 dilution),0 mm
same,zone of inhibition at 1000 ppm,Staph. Aureus; 1000 ppm,32 mm
same,allicin concentration at which inhibition was demonstrated on agar plates,Ent. Hirae,≤ 0.225 g/L
